This is an account of results in US20240174702A1, “SOLID FORMS OF A COMPOUND FOR […]” (Gilead Sciences, Inc., priority 2022, published 2024).

A short description of data set [1]: Stability study: loss of purity over time by liquid chromatography. It is filed as physicochemical. The procedure: Formula I amorphous material and Forms I, II, III and IV were examined for loss of purity over time as determined by liquid chromatography.
The sample preparations for the stability study are described as follows: • Formula I Amorphous: A sample of amorphous solids was placed at about 22° C. open to air and the purity was monitored over 3 days by liquid chromatography. • Formula I Form I: Samples of Formula I Form I were placed in sealed glass vials and placed in a chamber at about 40° C. and about 75% RH and the purity was periodically monitored by liquid chromatography. • Formula I Form II: Samples of Formula I Form II were placed in an open vial. The vial was placed inside a container alongside a saturated salt solution to provide a humidity of about 88% RH and sealed. The sealed container was then placed into a chamber at about 40° C. and the purity was periodically monitored by liquid chromatography. • Formula I Form III: Samples of Formula I Form […] and sealed. The sealed container was then placed into a chamber at about 40° C. and the purity was periodically monitored by liquid chromatography. • Formula I Form IV: Samples of Formula I Form IV were packaged at about 0% RH inside a PE bag and heat-sealed inside a foil pouch. The pouches were then placed in a chamber at about 40° C. and the purity was periodically monitored by liquid chromatography.

A short description of data set [2]: Dynamic vapor sorption (DVS) hygroscopicity. It is filed as physicochemical. The note with it: 25° C. The method, then: Hygroscopicity was studied using dynamic vapor sorption (DVS, TA Q5000 SA, TA Instruments, New Castle, DE or DVS, DVS Intrinsic, Surface Measurement Systems, London, UK). A sample (2-20 mg) was placed in an aluminum DVS pan and loaded on the sample side of the twin pan balance. The water sorption and desorption were studied as a function of relative humidity (RH) at 25° C. In 10% RH increments, the relative humidity was increased from 5% RH to 95% RH and then decreased back to 5% (some cases from 0 to 90% RH and then decrease back to 0%). […] Data analysis was performed using Universal Analysis 2000 Version 4.7A (TA Instruments, New Castle, DE) for TA DVS runs and Microsoft Excel for SMS DVS runs.

`Cn1ccc2c([C@@H](c3cn(C45CC(C4)C5)nn3)N(C(=O)OCOP(=O)(O)O)c3cc(Cl)c4ncc(C#N)c(NCC(C)(C)C)c4c3)cccc2c1=O` [Formula I Amorphous]: the “Formula I Purity Over Time (% purity)” value in data set [1] (About 22° C., open to atmosphere, 0 days) stood at 95.74 % purity; in data set [1] (About 22° C., open to atmosphere, 1 day), 95.45 % purity; in data set [1] (About 22° C., open to atmosphere, 2 days), 95.18 % purity; in data set [1] (About 22° C., open to atmosphere, 3 days), 95.05 % purity.

Turning to `Cn1ccc2c([C@@H](c3cn(C45CC(C4)C5)nn3)N(C(=O)OCOP(=O)(O)O)c3cc(Cl)c4ncc(C#N)c(NCC(C)(C)C)c4c3)cccc2c1=O` [Formula I Form III], the “Formula I Purity Over Time (% purity)” value came out at 98.61 % purity in data set [1] (About 40° C., about 27% RH, 0 days); 98.58 % purity in data set [1] (About 40° C., about 27% RH, 1 day); 98.55 % purity in data set [1] (About 40° C., about 27% RH, 7 days); 98.50 % purity in data set [1] (About 40° C., about 27% RH, 14 days).

Take `Cn1ccc2c([C@@H](c3cn(C45CC(C4)C5)nn3)N(C(=O)OCOP(=O)(O)O)c3cc(Cl)c4ncc(C#N)c(NCC(C)(C)C)c4c3)cccc2c1=O` [Formula I Form II]: the “Formula I Purity Over Time (% purity)” value in data set [1] (About 40° C., about 88% RH, 0 days) turned out to be 98.78 % purity; in data set [1] (About 40° C., about 88% RH, 1 day) it was 98.67 % purity; in data set [1] (About 40° C., about 88% RH, 7 days), 98.64 % purity; in data set [1] (About 40° C., about 88% RH, 14 days), 98.59 % purity. For the same molecule, the “loss of purity over time” value in data set [1] (compared to Formula I Form I or Formula I amorphous material) was “decreased loss of purity over time”.

In the case of `Cn1ccc2c([C@@H](c3cn(C45CC(C4)C5)nn3)N(C(=O)OCOP(=O)(O)O)c3cc(Cl)c4ncc(C#N)c(NCC(C)(C)C)c4c3)cccc2c1=O` [Formula I Form IV], the “Formula I Purity Over Time (% purity)” value was 99.49 % purity in data set [1] (About 40° C., about 0% RH, 0 days); 99.44 % purity in data set [1] (About 40° C., about 0% RH, 14 days); 99.43 % purity in data set [1] (About 40° C., about 0% RH, 28 days).

`Cn1ccc2c([C@@H](c3cn(C45CC(C4)C5)nn3)N(C(=O)OCOP(=O)(O)O)c3cc(Cl)c4ncc(C#N)c(NCC(C)(C)C)c4c3)cccc2c1=O` [Formula I Form I]: the “Formula I Purity Over Time (% purity)” value in data set [1] (About 40° C., about 75% RH, 0 days) amounted to 99.13 % purity; in data set [1] (About 40° C., about 75% RH, 7 days), 98.37 % purity; in data set [1] (About 40° C., about 75% RH, 14 days), 97.97 % purity; in data set [1] (About 40° C., about 75% RH, 28 days), 96.57 % purity. Also, the DVS weight change entry in data set [2] (RH 5-95%) is “about 9.5 weight percent”.

Take `Cn1ccc2c([C@@H](c3cn(C45CC(C4)C5)nn3)N(C(=O)OCOP(=O)(O)O)c3cc(Cl)c4ncc(C#N)c(NCC(C)(C)C)c4c3)cccc2c1=O` [Formula I Glycolate]: the DVS weight change entry in data set [2] (0-90% RH) is given as “about 7.5%”; in data set [2] (50-90% RH) it was “about 2%”.

With `Cn1ccc2c([C@@H](c3cn(C45CC(C4)C5)nn3)N(C(=O)OCOP(=O)(O)O)c3cc(Cl)c4ncc(C#N)c(NCC(C)(C)C)c4c3)cccc2c1=O` [Formula I Pyruvate Form B], the DVS weight change entry is listed as “about 4.3%” in data set [2] (10-90% RH) and “about 2.5%” in data set [2] (50-90% RH).

On to `Cn1ccc2c([C@@H](c3cn(C45CC(C4)C5)nn3)N(C(=O)OCOP(=O)(O)O)c3cc(Cl)c4ncc(C#N)c(NCC(C)(C)C)c4c3)cccc2c1=O` [Formula I α-Ketobutyrate Form B], for which the results for the DVS weight change entry in data set [2] (0-90% RH) and in data set [2] (50-90% RH) were “about 5.5%” and “about 2%”, respectively.
